In the supplement of paper PMC12205070:

Key:
Experiment in all cases: normalised number of viable cells after treatment (fraction of control); higher = more viable cells (less drug effect)
P6 Relapse = test system: P6 Relapse (T-ALL xenograft cells from relapse)
Method: (§1)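 T-ALL PDX-derived cells (initial diagnosis or relapse samples of individual patients) co-cultured on hTERT-immortalized bone marrow MSCs in 384-well plates were treated with Cytarabine, Venetoclax, S-63845, A1331852 or FX1 (0.1 nM to 10,000 nM) for 72 h.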

P8 Initial = test system: P8 Initial (T-ALL xenograft cells from diagnosis)
Method: as §1

P12 Relapse = test system: P12 Relapse (T-ALL xenograft cells from relapse)
Method: as §1

P12 Initial = test system: P12 Initial (T-ALL xenograft cells from diagnosis)
Method: as §1

P6 Initial = test system: P6 Initial (T-ALL xenograft cells from diagnosis)
Method: as §1

P1 Initial = test system: P1 Initial (T-ALL xenograft cells from diagnosis)
Method: as §1

P1 Relapse = test system: P1 Relapse (T-ALL xenograft cells from relapse)
Method: as §1

P10 Initial = test system: P10 Initial (T-ALL xenograft cells from diagnosis)
Method: as §1

P2 Initial = test system: P2 Initial (T-ALL xenograft cells from diagnosis)
Method: as §1

P8 Relapse = test system: P8 Relapse (T-ALL xenograft cells from relapse)
Method: as §1

P10 Relapse = test system: P10 Relapse (T-ALL xenograft cells from relapse)
Method: as §1

P2 Relapse = test system: P2 Relapse (T-ALL xenograft cells from relapse)
Method: as §1

P3 Relapse = test system: P3 Relapse (T-ALL xenograft cells from relapse)
Method: as §1

P3 Initial = test system: P3 Initial (T-ALL xenograft cells from diagnosis)
Method: as §1

Cc1c(-c2c(-c3ccc(F)o3)sc3ncnc(O[C@H](Cc4ccccc4OCc4ccnn4CC(F)(F)F)C(=O)O)c23)ccc(OCCN2CCN(C)CC2)c1Cl
normalised number of viable cells
Details	0.125 nM	0.13 nM	1 nM	1.25 nM	12.5 nM	31.25 nM	100 nM	625 nM	1250 nM	10000 nM
P1 Initial	1.16	–	1.05	–	0.838	–	0.231	–	0.054	0.0485
P1 Relapse	–	1.26	–	1.15	–	0.987	–	0.131	–	0.039
P2 Initial	–	0.99	–	0.918	–	0.86	–	0.197	–	0.129
P2 Relapse	–	1.05	–	1.04	–	0.878	–	0.7035	–	0.068
P6 Initial	–	1.02	–	1.08	–	0.638	–	0.0605	–	0.022
P6 Relapse	–	1.07	–	0.884	–	1.02	–	0.483	–	0.035
P8 Initial	–	1.09	–	1.08	–	1.04	–	0.54	–	0.0315
P8 Relapse	–	0.992	–	1.05	–	1.02	–	0.9355	–	0.0655
P10 Initial	–	1.29	–	1.17	–	0.639	–	0.225	–	0.0835
P10 Relapse	–	1.02	–	1.15	–	1.08	–	0.785	–	0.0695
P12 Initial	–	1.05	–	0.991	–	0.58	–	0.337	–	0.0575
P12 Relapse	–	0.277	–	1.52	–	0.199	–	0.048	–	0.0695

Nc1ccn([C@@H]2O[C@H](CO)[C@@H](O)[C@@H]2O)c(=O)n1 [Cytarabine]
Details	normalised number of viable cells
P1 Initial, 0.125 nM	0.988
P1 Initial, 1 nM	0.83
P1 Initial, 12.5 nM	0.396
P1 Initial, 100 nM	0.245
P1 Initial, 1250 nM	0.23
P1 Initial, 10000 nM	0.0865
P1 Relapse, 0.125 nM	0.84
P1 Relapse, 1 nM	0.683
P1 Relapse, 12.5 nM	0.426
P1 Relapse, 100 nM	0.354
P1 Relapse, 1250 nM	0.235
P1 Relapse, 10000 nM	0.224
P2 Initial, 0.998752 nM	1.83
P2 Initial, 9.98752 nM	1.97
P2 Initial, 99.8752 nM	0.894
P2 Initial, 998.752 nM	0.683
P2 Initial, 9987.52 nM	0.631
P2 Relapse, 0.998752 nM	0.981
P2 Relapse, 9.98752 nM	0.99
P2 Relapse, 99.8752 nM	0.973
P2 Relapse, 998.752 nM	0.804
P2 Relapse, 9987.52 nM	0.61
P3 Initial, 0.998752 nM	1.04
P3 Initial, 9.98752 nM	0.855
P3 Initial, 99.8752 nM	0.14
P3 Initial, 998.752 nM	0.0925
P3 Initial, 9987.52 nM	0.0805
P3 Relapse, 0.998752 nM	1.14
P3 Relapse, 9.98752 nM	0.684
P3 Relapse, 99.8752 nM	0.464
P3 Relapse, 998.752 nM	0.306
P3 Relapse, 9987.52 nM	0.143
P6 Initial, 0.998752 nM	0.95
P6 Initial, 9.98752 nM	0.6575
P6 Initial, 99.8752 nM	0.454
P6 Initial, 998.752 nM	0.248
P6 Initial, 9987.52 nM	0.239
P6 Relapse, 0.998752 nM	0.745
P6 Relapse, 9.98752 nM	1.28
P6 Relapse, 99.8752 nM	1.18
P6 Relapse, 998.752 nM	0.902
P6 Relapse, 9987.52 nM	0.852
P8 Initial, 0.998752 nM	1.67
P8 Initial, 9.98752 nM	1.54
P8 Initial, 99.8752 nM	0.489
P8 Initial, 998.752 nM	0.4715
P8 Initial, 9987.52 nM	0.577
P8 Relapse, 0.998752 nM	1.551
P8 Relapse, 9.98752 nM	1.57
P8 Relapse, 99.8752 nM	0.744
P8 Relapse, 998.752 nM	0.821
P8 Relapse, 9987.52 nM	0.599
P10 Initial, 0.998752 nM	1.45
P10 Initial, 9.98752 nM	1.4
P10 Initial, 99.8752 nM	0.472
P10 Initial, 998.752 nM	0.426
P10 Initial, 9987.52 nM	0.427
P10 Relapse, 0.998752 nM	1.08
P10 Relapse, 9.98752 nM	1
P10 Relapse, 99.8752 nM	0.737
P10 Relapse, 998.752 nM	0.712
P10 Relapse, 9987.52 nM	0.679
P12 Initial, 0.998752 nM	1.33
P12 Initial, 9.98752 nM	1.2
P12 Initial, 99.8752 nM	0.327
P12 Initial, 998.752 nM	0.313
P12 Initial, 9987.52 nM	0.593
P12 Relapse, 0.998752 nM	4.13
P12 Relapse, 9.98752 nM	5.01
P12 Relapse, 99.8752 nM	1.49
P12 Relapse, 998.752 nM	0.76
P12 Relapse, 9987.52 nM	0.446
